Assay results published in ChEMBL document CHEMBL1201862, “PubChem BioAssay data set” (2004).
The source made the active and inactive calls.

Experiments:
Cytochrome P450 2C9 = Cytochrome P450 2C9 (Homo sapiens, UniProt P11712); settings: Potency
[1] = biological target: Mothers against decapentaplegic homolog 3 (Homo sapiens, UniProt P84022); assay: blockers of Smad3 complex formation in lysate – cell lysate, secondary confirmation, chemiluminescent ELISA, HEK293 lysate, dose response (AID 1058); format: functional
[2] = biological target: T1, Neuropeptide Y receptor type 2 (Homo sapiens, UniProt P49146); assay: Fluorescence-based counterscreen for agonists of NPY-Y1: cell-based high-throughput dose response assay for agonists of NPY-Y2.; format: functional
T1 sequence (P49146 whole entry): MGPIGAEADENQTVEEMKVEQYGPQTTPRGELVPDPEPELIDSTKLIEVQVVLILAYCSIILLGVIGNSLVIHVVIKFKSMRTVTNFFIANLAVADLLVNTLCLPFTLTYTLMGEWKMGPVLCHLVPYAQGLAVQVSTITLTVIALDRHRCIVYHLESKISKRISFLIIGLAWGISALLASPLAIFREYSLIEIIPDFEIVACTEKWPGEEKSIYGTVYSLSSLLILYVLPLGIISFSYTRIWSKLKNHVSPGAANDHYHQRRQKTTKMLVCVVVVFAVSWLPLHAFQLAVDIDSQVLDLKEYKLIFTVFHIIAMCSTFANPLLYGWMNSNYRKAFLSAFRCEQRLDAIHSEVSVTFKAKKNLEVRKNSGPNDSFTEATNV

HEK293 = assay: Fluorescence-based counterscreen for potentiators or agonists of NPY-Y1: cell-based high-throughput dose response assay for inhibitors of cyclic nucleotide gated ion channel (CNGC) activity. In this assay, the parental HEK293 cell line transfected with a cyclic-nucleotide gated ion channel (CNGC)-based cAMP sensor is used to measure inhibition of isoproterenol-induced CNGC …; format: functional; settings: Homo sapiens
[3] = biological target: T2, Neuropeptide Y receptor type 1 (Homo sapiens, UniProt P25929); assay: Fluorescence-based dose response cell-based high-throughput screening assay for agonists of NPY-Y1. [Related pubchem assays: 1697 (Screening assay (NPY-Y1 agonists).), 1359 (Screening assay (NPY-Y2 potentiators or agonists).), 1304 (Screening assay (NPY-Y1 potentiators or agonists).), 1704 (Screening assay (CNGC inhibitors).), 1791 (Summary AID.)]; format: functional
T2 sequence (P25929 whole entry): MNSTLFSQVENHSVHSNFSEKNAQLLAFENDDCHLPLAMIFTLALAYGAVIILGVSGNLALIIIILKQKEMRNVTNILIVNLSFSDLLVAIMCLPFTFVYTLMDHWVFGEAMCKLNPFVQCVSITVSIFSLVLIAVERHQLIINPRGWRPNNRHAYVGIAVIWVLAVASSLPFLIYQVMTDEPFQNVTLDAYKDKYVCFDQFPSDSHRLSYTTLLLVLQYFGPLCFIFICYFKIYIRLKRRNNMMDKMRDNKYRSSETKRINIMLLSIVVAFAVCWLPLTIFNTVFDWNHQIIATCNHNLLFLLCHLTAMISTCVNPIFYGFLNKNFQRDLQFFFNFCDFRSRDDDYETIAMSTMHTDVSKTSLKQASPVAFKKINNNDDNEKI

[4] = luciferase reporter signal suppression in cells – H4 neuroglioma cells, luminescence, dose response (AID 1990); format: functional, cell-based
[5] = luciferase reporter signal reduction – luminescence, H4-C neuroglioblastoma cells, dose response (AID 2458); format: functional, cell-based;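 note: H4 neuroglioblastoma cells stably carrying a luciferase reporter gene fusion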
BJ [6] = assay: BJ-TERT fibroblast viability loss – cell-based, RAS-independent, luminescence, dose response (AID 1933); format: functional; settings: Homo sapiens
cells = format: functional, cell-based
[7] = Luminescence Cell-Based Dose Response HTS to Identify Inhibitors of 5'UTR Stem-Loop Driven Prion Protein mRNA Translation in H4 Neuroglioblastoma Cells. [Related pubchem assays: 1827 (Project Summary), 1813 (Primary HTS)]; format: functional
[8] = alpha-synuclein stem-loop luciferase translation blockers – H4 neuroglioma cells, luminescence, confirmation (AID 1988); format: functional, cell-based
BJ [9] = assay: cells; format: functional, cell-based; settings: Homo sapiens
BJ [10] = assay: BJ-TERT-LT-ST fibroblast viability loss – cell-based, RAS-independent, luminescence, dose response (AID 1935); format: functional; settings: Homo sapiens;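 note: BJ fibroblasts immortalized with TERT plus LT and ST oncogenes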
[11] = DRD fibroblast viability loss – cell-based, non-viral oncogenic, luminescence, dose response (AID 1934); format: functional; settings: Homo sapiens
[12] = alpha-synuclein stem-loop translation blockers – luminescence, H4 neuroglioblastoma cells, dose confirmation, confirmation (AID 2454); format: functional, cell-based;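 note: H4 neuroglioblastoma cells carrying an alpha-synuclein 5'UTR luciferase reporter; potency for inhibition of the luciferase signal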
BJ [13] = assay: growth inhibition of engineered Ras-driven BJ cells – cell-based, alamar blue fluorescence, cherrypicked samples, dose response (AID 2631); format: functional; settings: Homo sapiens;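 note: confirmatory dose-response assay in RAS-dependent BJ fibroblasts engineered with TERT, LT and ST, with cytotoxicity read by fluorescence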
[14] = biological target: Dual specificity protein phosphatase 3 (Homo sapiens, UniProt P51452); assay: inhibition constants for human DUSP3 – biochemical, colorimetric, SAR follow-up (AID 2004)
NS3 = NS3 (Hepatitis C virus, UniProt A3EZJ3); assay: PubChem AID 2173; set-up: species or system Hepacivirus hominis
[15] = biological target: Induced myeloid leukemia cell differentiation protein Mcl-1 (Homo sapiens, UniProt Q07820); format: functional
[16] = biological target: T3, Carboxy-terminal domain RNA polymerase II polypeptide A small phosphatase 1 (Homo sapiens, UniProt Q9GZU7); assay: CTDSP1 inhibitors, concentration-response, biochemical, absorbance readout, ultra-high-throughput screen actives (AID 540297); format: functional
T3 sequence (Q9GZU7 whole entry): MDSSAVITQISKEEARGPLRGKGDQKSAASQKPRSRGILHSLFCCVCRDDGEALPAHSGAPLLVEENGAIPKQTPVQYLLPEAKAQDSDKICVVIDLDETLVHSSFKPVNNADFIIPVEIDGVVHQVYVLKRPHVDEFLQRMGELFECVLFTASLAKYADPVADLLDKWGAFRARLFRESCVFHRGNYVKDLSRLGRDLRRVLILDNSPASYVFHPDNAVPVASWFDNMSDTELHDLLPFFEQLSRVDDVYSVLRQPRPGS

[17] = IC50 of Artemis nuclease activity blockers – biochemical, fluorescence intensity, dose response (AID 720701); format: functional;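 note: Artemis endonuclease enzyme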
[18] = antiviral protection against BTV-induced cell death – arbovirus, BSR cells, confirmation (AID 1250); format: functional;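 note: protection from viral cytopathic effect measured as cell viability by ATP luminescence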

Sequence of Dual specificity protein phosphatase 3 (P51452 whole entry): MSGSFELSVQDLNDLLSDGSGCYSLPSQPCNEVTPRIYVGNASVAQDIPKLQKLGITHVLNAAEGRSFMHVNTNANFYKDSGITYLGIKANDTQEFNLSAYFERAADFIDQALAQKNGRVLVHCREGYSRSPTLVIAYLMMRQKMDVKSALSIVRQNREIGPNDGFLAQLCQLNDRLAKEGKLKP
Sequence of Induced myeloid leukemia cell differentiation protein Mcl-1 (Q07820 whole entry, the tested form may be a part): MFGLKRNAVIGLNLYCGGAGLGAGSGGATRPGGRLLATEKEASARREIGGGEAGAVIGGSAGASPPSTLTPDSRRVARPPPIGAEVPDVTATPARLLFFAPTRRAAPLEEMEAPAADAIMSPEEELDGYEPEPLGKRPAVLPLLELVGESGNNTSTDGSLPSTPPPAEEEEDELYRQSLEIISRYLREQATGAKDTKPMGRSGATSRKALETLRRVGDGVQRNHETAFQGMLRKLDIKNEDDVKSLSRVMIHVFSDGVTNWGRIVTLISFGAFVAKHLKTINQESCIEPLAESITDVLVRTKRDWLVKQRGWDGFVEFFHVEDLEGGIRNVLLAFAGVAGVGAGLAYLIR
Sequence of Mothers against decapentaplegic homolog 3 (P84022 whole entry): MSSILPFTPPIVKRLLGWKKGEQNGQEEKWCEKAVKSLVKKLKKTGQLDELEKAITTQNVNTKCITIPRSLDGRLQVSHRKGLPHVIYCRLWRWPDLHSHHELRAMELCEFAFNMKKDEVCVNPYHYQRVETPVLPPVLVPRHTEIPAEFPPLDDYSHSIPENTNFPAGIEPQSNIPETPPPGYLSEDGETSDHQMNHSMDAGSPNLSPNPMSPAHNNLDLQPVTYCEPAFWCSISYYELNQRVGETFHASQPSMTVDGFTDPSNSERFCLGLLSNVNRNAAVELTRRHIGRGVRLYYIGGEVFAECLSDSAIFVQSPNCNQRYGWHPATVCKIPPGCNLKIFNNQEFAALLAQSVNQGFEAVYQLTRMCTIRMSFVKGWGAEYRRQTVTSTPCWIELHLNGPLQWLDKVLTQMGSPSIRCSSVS
Sequence of Cytochrome P450 2C9 (P11712 whole entry): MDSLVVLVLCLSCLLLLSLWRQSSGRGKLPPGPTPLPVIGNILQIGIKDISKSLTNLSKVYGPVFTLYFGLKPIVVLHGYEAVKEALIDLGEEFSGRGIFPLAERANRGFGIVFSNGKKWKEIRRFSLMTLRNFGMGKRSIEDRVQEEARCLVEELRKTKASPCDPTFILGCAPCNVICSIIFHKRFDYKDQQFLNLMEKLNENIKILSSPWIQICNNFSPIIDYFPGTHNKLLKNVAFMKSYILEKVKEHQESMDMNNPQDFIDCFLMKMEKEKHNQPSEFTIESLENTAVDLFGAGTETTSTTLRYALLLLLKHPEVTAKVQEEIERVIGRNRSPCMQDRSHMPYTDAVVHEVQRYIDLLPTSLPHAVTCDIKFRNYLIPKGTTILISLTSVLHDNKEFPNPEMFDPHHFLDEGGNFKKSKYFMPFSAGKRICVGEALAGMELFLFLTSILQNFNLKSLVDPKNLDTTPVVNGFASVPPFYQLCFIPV
Sequence of NS3 (A3EZJ3 whole entry): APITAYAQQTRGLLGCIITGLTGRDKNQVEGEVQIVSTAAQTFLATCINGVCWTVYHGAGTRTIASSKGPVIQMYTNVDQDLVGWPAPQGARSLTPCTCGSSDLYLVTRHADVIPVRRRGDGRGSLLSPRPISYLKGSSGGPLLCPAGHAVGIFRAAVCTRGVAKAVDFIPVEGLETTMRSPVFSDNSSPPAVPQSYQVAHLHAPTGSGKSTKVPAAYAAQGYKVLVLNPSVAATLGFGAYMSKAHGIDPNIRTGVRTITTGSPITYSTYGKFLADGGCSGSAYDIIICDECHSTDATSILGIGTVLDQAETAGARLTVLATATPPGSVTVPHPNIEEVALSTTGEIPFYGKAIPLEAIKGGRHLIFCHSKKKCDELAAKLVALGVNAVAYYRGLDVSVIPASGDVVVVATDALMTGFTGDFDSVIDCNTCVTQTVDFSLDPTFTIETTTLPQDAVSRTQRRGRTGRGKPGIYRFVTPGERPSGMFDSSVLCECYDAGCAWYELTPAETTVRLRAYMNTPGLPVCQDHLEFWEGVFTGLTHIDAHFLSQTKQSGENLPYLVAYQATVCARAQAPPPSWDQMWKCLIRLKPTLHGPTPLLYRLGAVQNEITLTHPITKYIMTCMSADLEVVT

C=CCOC(=O)C(C(C)=O)C(NC(=O)OC)c1ccc(Cl)cc1 (configuration not stated)
AC50 (Cytochrome P450 2C9): 3.16 µM (inconclusive)

COc1ccc(C(c2cc3c(cc2O)OCO3)N2CCCCC2)cc1OC (configuration not stated)
IC50 [1]: > 40 µM (not active)

CSc1nc(-c2ccco2)nn1C(=O)c1ccccc1Cl
EC50 [2]: > 35.4 µM (not active) | IC50 (HEK293): > 35.4 µM (not active) | EC50 [3]: > 35.4 µM (not active)

COc1ccc(S(=O)(=O)N2c3ccc(F)cc3CCC2C)cc1 (configuration not stated)
EC50 [4]: 1.8 µM (active) | EC50 [5]: 0.757 µM (active) | EC50 (BJ [6]): 0.675 µM (active) | EC50 (cells): > 12 µM (inconclusive) | EC50 [7]: < 0.1 µM (active) | EC50 [8]: < 0.1 µM (active) | EC50 (BJ [9]): 1.21 µM (inconclusive) | EC50 (BJ [10]): 0.716 µM (inconclusive) | EC50 [11]: 0.776 µM (active) | EC50 [12]: 1.01 µM (active) | EC50 (BJ [13]): 0.25 µM (active)

Cc1cccc(COc2ccc3c(c2)oc(=O)c2ccccc23)c1
Ki [14]: 26.4 µM (inactive)

O=C(Nc1nc(-c2ccco2)c(-c2ccco2)s1)C1CC(=O)N(c2ccc3c(c2)OCCO3)C1 (configuration not stated)
IC50 (NS3): 26.3 µM (not active) | IC50 [15]: 4.4 µM (active) | IC50 [16]: 3.1 µM (active) | IC50 [17]: > 20 µM (inactive)

CC(=O)/C(=N/Nc1cccc(Cl)c1)Sc1nnc(C(O)c2ccccc2)n1-c1ccccc1 (configuration not stated)
IC50 [18]: 37.7 µM (active)
